Test results taken from patent publication US10214492B2, “Heterocyclic inhibitors of MCT4” (Vettore, LLC, priority 2016, dated 2019).

How the values were obtained:
MCT1 = MCT1 (Homo sapiens (Human), UniProt P53985); assay: Assay 4: MCT1-mediated lactate transport in BT20 breast cancer cells; assay type: cell-based; conditions: Table 27
Outline: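 Transport started with 10 mM L-lactate on BCECF-loaded BT20 cells in Tyrode's Solution, pH 7.4. Dye loading: BCECF-AM ester (30 mM DMSO stock), 5 min at 37° C, then one wash.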

[1] = Metabolic stability in rat liver microsomes (in vitro t1/2); assay type: in vitro ADME; conditions: for half-life at 2 µM: read-out: Rat microsome t1/2, min; for Rat microsome % 60 min: rat liver microsomes
Procedure: (§1) The following are assays that may be used to evaluate the metabolic stability of compounds of Formula (I) in human, rat, or mouse microsomes. The assays follow a common procedure recited below. 1. […] Two separated experiments were performed as follows. a) With NADPH: 10 μL of 20 mg/mL liver microsomes and 40 μL of 10 mM NADPH were added to the incubations. […] The final concentration of microsomes was 0.5 mg/mL. 3. The reaction was started with the addition of 4 μL of 200 μM control compound or test compound solutions. Verapamil was used as positive control in this study. The final concentration of test compound or control compound was 2 μM. 4. Aliquots of 50 μL were taken from the reaction solution at 0, 15, 30, 45 and 60 min. […] Samples were centrifuged at 3,220 g for 40 minutes. A 90 μL aliquot of the supernatant was mixed with 90 μL of ultra-pure H2O and then used for LC-MS/MS analysis. 5. Data analysis. All calculations were carried out using Microsoft Excel. Peak areas were determined from extracted ion chromatograms. The slope value, k, was determined by linear regression of the natural logarithm of the remaining percentage of the parent drug vs. incubation time curve. The in vitro half-life (in vitro t1/2) was determined from the slope value: in vitro t1/2=−(0.693)/k.

MCT4 = MCT4 (Homo sapiens (Human), UniProt O15427); assay: Assay 3: MCT4-mediated lactate transport in MDA-MB-231 breast cancer cells; assay type: cell-based; conditions: MDA-MB-231 cells; lactate transport
Outline: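 Read-out is BCECF fluorescence tracking the intracellular pH shift from MCT4-mediated lactate/H+ co-transport. Before measurement, MDA-MB-231 cells take up BCECF-AM for 5 min at 37° C, then are washed into Tyrode's Solution, pH 7.4.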

[2] = Metabolic stability in mouse liver microsomes (in vitro t1/2); assay type: in vitro ADME; conditions: for half-life at 2 µM: mouse liver microsomes 0.5 mg/mL, 2 μM compound, read-out: Mouse microsome t1/2, min; for Mouse microsome % 60 min: mouse liver microsomes
Procedure: as §1

[3] = Metabolic stability in human liver microsomes (in vitro t1/2); assay type: in vitro ADME; conditions: for half-life at 2 µM / Human microsome t1/2, min: human liver microsomes 0.5 mg/mL, 2 μM compound; for half-life at 2 µM: read-out: Human microsome t1/2, min; for Human microsome % 60 min: human liver microsomes
Procedure: as §1

[4] = Pharmacokinetic assay in rat (IV 3 mg/kg, PO 10 mg/kg); assay type: in vivo; conditions: Male Sprague-Dawley rat
Text: The following are assays that may be used to evaluate the pharmacokinetic properties of Formula (I) in mouse or rat. The assays follow a common procedure recited below.
1. […] For PO (oral gavage), DMSO/PEG400 (10:90). Formulations freshly prepared on the day of dosing or prior to dosing. Storage at room temperature.
2. Test Species: For Mouse: Male CD1 strain, approximately 6-8 weeks in age, approximately 20-30 g. For Rat: Male Sprague-Dawley strain, approximately 6-8 weeks in age, approximately 200-300 g.
3. Dose Level: For IV, 3 mg/kg. For PO, 10 mg/kg.
4. Number of animals: 3 per assay.
5. PK time points: For IV (plasma): 5 min, 15 min, 1, 2, 4, 6, 8, 24 h post dose. For PO (plasma): 15 min, 30 min, 1, 2, 4, 6, 8, 24 h post dose.
6. Blood Sample Collection and Processing. Blood was collected (˜0.2 mL per time point) from jugular vein. Blood of each sample was transferred into plastic micro centrifuge tubes containing anticoagulant of EDTA-K2. Blood samples were centrifuged at 2,000 g for 5 minutes at 4° C. to obtain plasma.
7. Samples Analysis: Plasma samples were analyzed using LC/MS/MS method, and pharmacokinetic parameters (half-life: t1/2; oral bioavailability: F; volume of distribution: Vss).

[5] = rat liver microsomes 0.5 mg/mL, 2 μM compound

Sequence of MCT1 (P53985 whole entry): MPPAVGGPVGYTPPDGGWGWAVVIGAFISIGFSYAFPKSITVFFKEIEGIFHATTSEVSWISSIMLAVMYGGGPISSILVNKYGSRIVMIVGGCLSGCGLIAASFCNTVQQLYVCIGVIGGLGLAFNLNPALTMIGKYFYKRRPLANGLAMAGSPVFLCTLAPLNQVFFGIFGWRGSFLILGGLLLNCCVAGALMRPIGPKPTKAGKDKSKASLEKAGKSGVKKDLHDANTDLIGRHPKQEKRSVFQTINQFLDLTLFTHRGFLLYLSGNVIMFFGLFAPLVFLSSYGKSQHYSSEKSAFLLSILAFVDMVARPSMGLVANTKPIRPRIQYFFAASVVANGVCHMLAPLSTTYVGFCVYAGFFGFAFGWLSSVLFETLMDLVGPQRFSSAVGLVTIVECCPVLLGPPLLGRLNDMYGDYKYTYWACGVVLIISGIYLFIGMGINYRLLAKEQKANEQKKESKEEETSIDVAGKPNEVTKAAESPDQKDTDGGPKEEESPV
Sequence of MCT1 (P35613 140-385 partner): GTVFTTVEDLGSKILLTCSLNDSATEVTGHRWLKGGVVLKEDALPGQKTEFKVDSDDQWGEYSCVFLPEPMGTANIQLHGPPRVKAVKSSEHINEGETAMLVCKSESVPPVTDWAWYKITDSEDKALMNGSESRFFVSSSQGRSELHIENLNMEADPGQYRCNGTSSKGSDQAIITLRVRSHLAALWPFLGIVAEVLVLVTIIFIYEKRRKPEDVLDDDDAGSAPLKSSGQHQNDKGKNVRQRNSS
Sequence of MCT4 (O15427 whole entry, looked up): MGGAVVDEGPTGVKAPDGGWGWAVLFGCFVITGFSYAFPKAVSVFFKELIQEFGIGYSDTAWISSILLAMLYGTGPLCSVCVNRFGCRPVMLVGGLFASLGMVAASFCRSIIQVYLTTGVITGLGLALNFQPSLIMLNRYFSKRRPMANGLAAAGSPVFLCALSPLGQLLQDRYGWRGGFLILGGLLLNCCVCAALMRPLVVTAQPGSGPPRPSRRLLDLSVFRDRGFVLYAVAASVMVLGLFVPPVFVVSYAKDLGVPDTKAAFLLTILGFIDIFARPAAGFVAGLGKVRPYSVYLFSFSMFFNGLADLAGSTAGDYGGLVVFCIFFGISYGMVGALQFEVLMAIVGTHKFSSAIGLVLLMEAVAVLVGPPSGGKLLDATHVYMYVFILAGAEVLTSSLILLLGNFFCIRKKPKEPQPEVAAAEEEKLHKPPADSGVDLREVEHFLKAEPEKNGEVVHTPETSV
Sequence of MCT4 (P35613 whole entry partner, looked up): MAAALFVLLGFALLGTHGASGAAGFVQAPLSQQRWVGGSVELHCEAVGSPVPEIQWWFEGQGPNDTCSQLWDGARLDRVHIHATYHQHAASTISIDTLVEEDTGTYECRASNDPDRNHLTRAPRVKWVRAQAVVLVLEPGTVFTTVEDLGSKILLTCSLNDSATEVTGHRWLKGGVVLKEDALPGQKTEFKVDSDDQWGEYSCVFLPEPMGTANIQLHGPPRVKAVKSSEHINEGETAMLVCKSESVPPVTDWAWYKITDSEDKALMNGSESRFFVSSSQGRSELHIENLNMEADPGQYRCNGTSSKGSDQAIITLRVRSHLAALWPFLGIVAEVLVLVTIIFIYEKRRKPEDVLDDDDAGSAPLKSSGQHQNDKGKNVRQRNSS

Compound	IC50 (MCT1)	half-life at 2 µM [1, 5]	Rat microsome % 60 min [1]	IC50 (MCT4)	half-life at 2 µM [2]	Mouse microsome % 60 min [2]	half-life at 2 µM [3]	Human microsome % 60 min [3]	Human microsome t1/2, min [3]	Rat F ([4]; oral bioavailability, PO 10 mg/kg)	half-life ([4]; plasma, PO 10 mg/kg, read-out: Rat t1/2 (converted))	Vd ([4]; plasma, volume of distribution, read-out: Rat Vss)	Rat microsome t1/2, min [1, 5]
Cn1ncc2cccc(-n3nc(COC(C)(C)C(=O)O)cc3-c3cccc(OC4CCC4)c3)c21 [Example 166, 2-([5-(3-Cyclobutoxyphenyl)-1-(1-methyl-1H-indazol-7-yl)-1H-pyrazol-3-yl]-methoxy)-2-methylpropanoic acid]	53000 nM		102%	5.9 nM	3.23 h	82%	21.1 h	94%					∞
CC(C)(C)COc1cccc(-c2cc(COC(C)(C)C(=O)O)nn2-c2ccccc2Cl)c1 [Example 177, 2-([1-(2-chlorophenyl)-5-[3-(2,2-dimethyl-propoxy)phenyl]-1H-pyrazol-3-yl]methoxy)-2-methylpropanoic acid]	35000 nM	10.6 h	90%	1.4 nM	5.57 h	87%	3.07 h	75%					
CC(C)(OCc1cc(-c2cccc(OC3CC3)c2)n(-c2ccc(F)cc2N2CCC2)n1)C(=O)O [Example 183, 2-([1-[2-(Azetidin-1-yl)-4-fluorophenyl]-5-(3-cyclopropoxyphenyl)-1H-pyraz.ol-3-yl]-methoxy)-2-methylpropanoic acid]	86000 nM	1.68 h	71%	1.3 nM	2.03 h	73%	1.65 h	66%					
Cc1ccccc1-n1nc(COC(C)(C)C(=O)O)cc1-c1cccc(OC2CC2)c1 [Example 188, 2-([5-(3-Cyclopropoxyphenyl)-1-(2-methyl-phenyl)-1H-pyrazol-3-yl]methoxy)-2-methylpropanoic acid]	15000 nM	8.17 h	87%	7.5 nM	23.3 h	92%		101%	∞				
CCOc1ccccc1Cn1nc(COC(C)(C)C(=O)O)cc1-c1cc(Cl)cc(OC)c1 [Example 196, 2-([5-(3-Chloro-5-methoxyphenyl)-1-[(2-ethoxyphenyl)methyl]1H-pyrazol-3-yl]-methoxy)-2-methylpropanoic acid]	38000 nM	0.633 h	32%	1.9 nM	0.617 h	33%	1.47 h	62%					
CCOc1ccccc1Cn1nc(COC(C)(C)C(=O)O)cc1-c1ccc2cnn(CC)c2c1 [Example 198, 2-([1-[(2-Ethoxyphenyl)methyl]-5-(1-ethyl-1H-indazol-6-yl)-1H-pyrazol-3-yl]-methoxy)-2-methylpropanoic acid]	26000 nM	3.42 h	82%	3.5 nM	4.05 h	84%	3.45 h	80%					
CC(C)(OCc1cc(-c2cccc(OC3CC3)c2)n(Cc2ccccc2N2CCCC2)n1)C(=O)O [Example 202, 2-([5-(3-Cyclopropoxyphenyl)-1-[[2-(pyrrolidin-1-yl)phenyl]methyl]|-1H-pyrazol-3-yl]methoxy)-2-methylpropanoic acid]	23000 nM	0.183 h	2%	6.2 nM	0.633 h	32%	0.617 h	32%					
CCCn1ncc2ccc(-c3cc(COC(C)(C)C(=O)O)nn3-c3ccccc3N3CCC3)cc21 [Example 246, 2-([1-[2-(Azetidin-1-yl)phenyl]-5-(1-propyl-1H-indazol-6-yl)-1H-pyrazol-3-yl]methoxy)-2-methylpropanoic acid]	32000 nM	1.82 h	69%	3.1 nM	2.8 h	81%	1.58 h	65%		52%	4.7 h	1.7 L/kg	

Second part, led by results:

IC50 (MCT1)	half-life at 2 µM [1, 5]	Rat microsome % 60 min [1]	IC50 (MCT4)	half-life at 2 µM [2]	Mouse microsome % 60 min [2]	half-life at 2 µM [3]	Human microsome % 60 min [3]	Human microsome t1/2, min [3]	Rat F ([4]; oral bioavailability, PO 10 mg/kg)	half-life ([4]; plasma, PO 10 mg/kg, read-out: Rat t1/2 (converted))	Vd ([4]; plasma, volume of distribution, read-out: Rat Vss)	Compound	Rat microsome t1/2, min [1, 5]
> 33000 nM	1.22 h	70%	0.32 nM	0.633 h	37%	0.867 h	62%					CC(C)(C)COc1cccc(-c2cc(COC(C)(C)C(=O)O)nn2-c2ccccc2N2CCC2)c1 [Example 155, 2-([1-[2-(Azetidin-1-yl)phenyl]-5-[3-(2,2-di-methylpropoxy)phenyl]-1H-pyrazol-3-yl]-methoxy)-2-methylpropanoic acid]	
27000 nM	2.42 h	72%	2.5 nM	2.08 h	70%	1.92 h	66%					CC(C)(OCc1cc(-c2cccc(OCC3CCC3)c2)n(-c2ccccc2Cl)n1)C(=O)O [Example 178, 2-([1-(2-Chlorophenyl)-5-[3-(Cyclobutyl-methoxy)phenyl]-1H-pyrazol-3-yl]-methoxy)-2-methylpropanoic acid]	
15000 nM	0.75 h	39%	7.2 nM	1.38 h	58%	1.38 h	58%					CCOc1ccccc1Cn1nc(COC(C)(C)C(=O)O)cc1-c1cccc(OC2CC2)c1 [Example 201, 2-([5-(3-Cyclopropoxyphenyl)-1-[(2-ethoxy-phenyl)methyl]-1H-pyrazol-3-yl]methoxy)-2-methylpropanoic acid]	
38000 nM	0.617 h	33%	3.2 nM	0.633 h	34%	1.13 h	56%					CC(C)(OCc1cc(-c2cccc(OC3CC3)c2)n(-c2ccccc2N2CCCC2)n1)C(=O)O [Example 221, 2-([5-(3-Cyclopropoxyphenyl)-1-[2-(pyrrolidin-1-yl)phenyl]-1H-pyrazol-3-yl]-methoxy)-2-methylpropanoic acid]	
94000 nM	5.58 h	90%	3.9 nM	16.7 h	94%		110%	∞				CC[C@@](C)(OCc1cc(-c2cc(OC)cc(OC)c2)n(-c2ccccc2Cl)n1)C(=O)O [Example 222, (2R)-2-([1-(2-Chlorophenyl)-5-(3,5-dimethoxyphenyl)-1H-pyrazol-3-yl]-methoxy)-2-methylbutanoic acid]	
54000 nM	7.58 h	88%	15 nM	11.4 h	95%	7.8 h	95%					Cn1ncc2ccc(-c3cc(COC(C)(C)C(=O)O)nn3Cc3ccccc3Cl)cc21 [Example 226, 2-([1-[(2-Chlorophenyl)methyl]-5-(1-methyl-1H-indazol-6-yl)-1H-pyrazol-3-yl]-methoxy)-2-methylpropanoic acid]	
